Assay results as given in PubChem BioAssay (NCI).
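96-well plates; 48 h exposure; 5 concentrations. Endpoints by linear interpolation between flanking doses. Not reached: highest tested concentration assigned. Abbreviation: GI50, concentration required for 50% inhibition of growth. Definition used: TGI = concentration required for complete inhibition of growth.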

Legend:
Assay in all cases: NCI tumour cell line growth inhibition, 48 h
[1] = test system: 786-0 renal
[2] = test system: A498 renal
[3] = test system: A549 NSCLC
[4] = test system: ACHN renal
[5] = test system: CAKI-1 renal
[6] = test system: CCRF-CEM leukemia
[7] = test system: COLO 205 colon
[8] = test system: DLD-1 colon
[9] = test system: DMS 114 small cell lung
[10] = test system: DMS 273 small cell lung
[11] = test system: EKVX NSCLC
[12] = test system: HCC-2998 colon
[13] = test system: HCT-116 colon
[14] = test system: HCT-15 colon
[15] = test system: HL-60(TB) leukemia
[16] = test system: HOP-18 NSCLC
[17] = test system: HOP-62 NSCLC
[18] = test system: HT29 colon
[19] = test system: IGROV1 ovarian
[20] = test system: K-562 leukemia
[21] = test system: KM12 colon
[22] = test system: KM20L2 colon
[23] = test system: LOX IMVI melanoma
[24] = test system: LXFL 529 NSCLC
[25] = test system: M14 melanoma
[26] = test system: M19-MEL melanoma
[27] = test system: MALME-3M melanoma
[28] = test system: MOLT-4 leukemia
[29] = test system: NCI-H226 lung
[30] = test system: NCI-H23 lung
[31] = test system: NCI-H460 lung
[32] = test system: NCI-H522 lung
[33] = test system: OVCAR-3 ovarian
[34] = test system: OVCAR-4 ovarian
[35] = test system: OVCAR-5 ovarian
[36] = test system: OVCAR-8 ovarian
[37] = test system: RPMI-8226 leukemia
[38] = test system: RXF-631 renal
[39] = test system: SF-268 CNS
[40] = test system: SF-295 CNS
[41] = test system: SF-539 CNS
[42] = test system: SK-MEL-2 melanoma
[43] = test system: SK-MEL-28 melanoma
[44] = test system: SK-MEL-5 melanoma
[45] = test system: SK-OV-3 ovarian
[46] = test system: SN12C renal
[47] = test system: SNB-19 CNS
[48] = test system: SNB-75 CNS
[49] = test system: SNB-78 CNS
[50] = test system: SW-620 colon
[51] = test system: TK-10 renal
[52] = test system: UACC-257 melanoma
[53] = test system: UACC-62 melanoma
[54] = test system: UO-31 renal
[55] = test system: XF 498 CNS
[56] = test system: HOP-92 NSCLC
[57] = test system: RXF 393 renal
[58] = test system: U251 CNS

`CCO.CCO.Oc1ccc(Nc2ncns2)cc1.Oc1ccc(Nc2ncns2)cc1.[Ti]` gave a GI50 [1] of 49.6 µM, a TGI [1] greater than 100 µM and a GI50 [2] of 28.6 µM. For the same molecule, the TGI [2] was 74.9 µM, the GI50 [3] was 43.6 µM and the TGI [3] was greater than 100 µM. The GI50 [4] was 33.2 µM, the TGI [4] was greater than 100 µM and the GI50 [5] was 47.5 µM. The TGI [5] was greater than 100 µM, the GI50 [6] was 27.7 µM and the TGI [6] was greater than 100 µM. It also gave a GI50 [7] of 21.5 µM, a TGI [7] of 47.4 µM and a GI50 [8] of 36.5 µM. For the same molecule, the TGI [8] was greater than 100 µM, the GI50 [9] was 21.6 µM and the TGI [9] was 67.5 µM. For the same molecule, the GI50 [10] was 25.3 µM, the TGI [10] was 80.7 µM and the GI50 [11] was 34.6 µM. The TGI [11] was 87.9 µM, the GI50 [12] was 53.1 µM and the TGI [12] was greater than 100 µM. The GI50 [13] was 30.2 µM, the TGI [13] was greater than 100 µM and the GI50 [14] was 48.1 µM. It also gave a TGI [14] greater than 100 µM, a GI50 [15] of 24.7 µM and a TGI [15] of 74.1 µM. The GI50 [16] was greater than 100 µM, the TGI [16] was greater than 100 µM and the GI50 [17] was 71.5 µM. It also gave a TGI [17] greater than 100 µM, a GI50 [18] of 31.5 µM and a TGI [18] greater than 100 µM. The GI50 [19] was 93 µM, the TGI [19] was greater than 100 µM and the GI50 [20] was 29 µM. For the same molecule, the TGI [20] was greater than 100 µM, the GI50 [21] was 47.5 µM and the TGI [21] was greater than 100 µM. It also gave a GI50 [22] greater than 100 µM, a TGI [22] greater than 100 µM and a GI50 [23] of 30.1 µM. For the same molecule, the TGI [23] was greater than 100 µM, the GI50 [24] was 24.7 µM and the TGI [24] was greater than 100 µM. It also gave a GI50 [25] of 45.4 µM, a TGI [25] greater than 100 µM and a GI50 [26] of 44.5 µM. For the same molecule, the TGI [26] was greater than 100 µM, the GI50 [27] was 38.3 µM and the TGI [27] was greater than 100 µM. It also gave a GI50 [28] of 27.5 µM, a TGI [28] greater than 100 µM and a GI50 [29] greater than 100 µM. The TGI [29] was greater than 100 µM, the GI50 [30] was 27.6 µM and the TGI [30] was 91.8 µM. The GI50 [31] was 26.7 µM, the TGI [31] was 87.7 µM and the GI50 [32] was 13.6 µM. It also gave a TGI [32] of 28.3 µM, a GI50 [33] of 55.8 µM and a TGI [33] greater than 100 µM. For the same molecule, the GI50 [34] was 38.8 µM, the TGI [34] was greater than 100 µM and the GI50 [35] was greater than 100 µM. It also gave a TGI [35] greater than 100 µM, a GI50 [36] of 39.7 µM and a TGI [36] greater than 100 µM. The GI50 [37] was 31.3 µM, the TGI [37] was greater than 100 µM and the GI50 [38] was 33 µM. It also gave a TGI [38] greater than 100 µM, a GI50 [39] of 36.2 µM and a TGI [39] greater than 100 µM. For the same molecule, the GI50 [40] was 69.9 µM, the TGI [40] was greater than 100 µM and the GI50 [41] was 34.5 µM. The TGI [41] was greater than 100 µM, the GI50 [42] was 27.6 µM and the TGI [42] was 70.7 µM. It also gave a GI50 [43] of 53 µM, a TGI [43] greater than 100 µM and a GI50 [44] of 23.4 µM. It also gave a TGI [44] of 72.3 µM, a GI50 [45] greater than 100 µM and a TGI [45] greater than 100 µM. It also gave a GI50 [46] of 67 µM, a TGI [46] greater than 100 µM and a GI50 [47] of 64.6 µM. It also gave a TGI [47] greater than 100 µM, a GI50 [48] of 15.8 µM and a TGI [48] of 69.1 µM. The GI50 [49] was 41.6 µM, the TGI [49] was greater than 100 µM and the GI50 [50] was 39.5 µM. For the same molecule, the TGI [50] was greater than 100 µM, the GI50 [51] was 50.8 µM and the TGI [51] was greater than 100 µM. For the same molecule, the GI50 [52] was 30.2 µM, the TGI [52] was greater than 100 µM and the GI50 [53] was 45.9 µM. It also gave a TGI [53] greater than 100 µM, a GI50 [54] of 41.6 µM and a TGI [54] greater than 100 µM. It also gave a GI50 [55] of 44.9 µM and a TGI [55] greater than 100 µM.

`Cc1ccc(S(=O)(=O)n2cc(/C=C/C#N)c(/C=C/C#N)c2)cc1` showed a TGI [1] greater than 100 µM, a TGI [2] greater than 100 µM and a TGI [3] greater than 100 µM. For the same molecule, the TGI [4] was greater than 100 µM, the TGI [6] was greater than 100 µM and the TGI [7] was greater than 100 µM. It also gave a TGI [9] greater than 100 µM, a TGI [10] greater than 100 µM and a TGI [11] greater than 100 µM. For the same molecule, the TGI [14] was greater than 100 µM, the TGI [15] was greater than 100 µM and the TGI [16] was greater than 100 µM. The TGI [17] was greater than 100 µM, the TGI [56] was 86.7 µM and the TGI [18] was greater than 100 µM. It also gave a TGI [19] greater than 100 µM, a TGI [20] greater than 100 µM and a TGI [21] greater than 100 µM. It also gave a TGI [22] greater than 100 µM, a TGI [23] greater than 100 µM and a TGI [24] greater than 100 µM. It also gave a TGI [25] greater than 100 µM, a TGI [26] greater than 100 µM and a TGI [27] greater than 100 µM. The TGI [28] was greater than 100 µM, the TGI [30] was greater than 100 µM and the TGI [31] was greater than 100 µM. It also gave a TGI [33] greater than 100 µM, a TGI [34] greater than 100 µM and a TGI [35] greater than 100 µM. For the same molecule, the TGI [36] was greater than 100 µM, the TGI [37] was greater than 100 µM and the TGI [57] was greater than 100 µM. For the same molecule, the TGI [38] was greater than 100 µM, the TGI [39] was greater than 100 µM and the TGI [40] was greater than 100 µM. It also gave a TGI [41] greater than 100 µM, a TGI [42] greater than 100 µM and a TGI [43] greater than 100 µM. For the same molecule, the TGI [44] was greater than 100 µM, the TGI [45] was greater than 100 µM and the TGI [46] was greater than 100 µM. For the same molecule, the TGI [47] was greater than 100 µM, the TGI [48] was greater than 100 µM and the TGI [50] was greater than 100 µM. It also gave a TGI [51] greater than 100 µM, a TGI [58] greater than 100 µM and a TGI [52] greater than 100 µM. It also gave a TGI [53] greater than 100 µM, a TGI [54] greater than 100 µM and a TGI [55] greater than 100 µM.
